Data reported in patent US8609694B2, “Use of pyridin-2-yl-methylamine derivatives for the production of a medicament for the treatment of chronic pain symptoms of neuropathological or psychogenic origin” (Pierre Fabre Medicament, priority 2003, dated 2013).

Tests used:
[1] = test system: hypersensitivity (allodynia) after unilateral ligature of the infraorbital nerve (peripheral neuropathy); experiment: peripheral neuropathy test in the rat (unilateral ligature of the infraorbital nerve, von Frey hair response score 0-4); assay type: in vivo; details: for amplitude of decrease of perceived pain intensity compared with baclofen: after nerve lesion of peripheral origin; for analgesic effect six days after the treatment's end (day 21): day 21, 6 days after pump explantation, same doses; for amplitude of analgesia 6 days after the treatment's end compared with amplitude at the treatment's end (day 15): day 21 versus day 15; for reduction of hypersensitivity (allodynia) to stimulation during treatment, versus saline: osmotic pump 14 days implanted 24 hours before lesion, (Ia) 0.63, (Ib) 0.16, morphine 5, baclofen 1.06 mg/rat/day, days 4-15
Procedure: The peripheral neuropathy test used was conducted in the rat according to a method analogous to that described by Vos in J. Neurosci. 1994, 14, 2708-2723. The product to be tested is delivered at a constant rate (0.12 ml/day) by means of an osmotic pump (Alzet, model 2ML2) for 14 days. The pumps are implanted 24 hours before lesion (unilateral ligature of the infraorbital nerve) and then explanted at the treatment's end. The pumps are implanted subcutaneously via a transverse incision made in the dorsal skin of the rat. Evaluation of the intensity of perceived pain is objectified from a series of behavioral signs observed in response to mechanical stimulation of the region lesioned by means of von Frey hairs. Stimulations are applied in order of increasing intensity. Intensity of perceived pain is evaluated from the following criteria: 0, no response by the animal; 1, detection (i.e., the rat turns its head towards the object used for stimulation); 2, withdrawal (i.e., the rat turns away or makes a withdrawal movement with its head to avoid the object used for stimulation); 3, flight or attack (i.e., the rat avoids the object by moving its body or deliberately attacks the object used for stimulation); 4, face rubbing (i.e., the rat rubs the area of stimulation three times in succession). The response level by the non-lesioned animals was 0 or 1.
The fumarate of compound (Ia) is administered at 0.63 mg/rat/day; the glycolate of compound (Ib) at 0.16 mg/rat/day; morphine hydrochloride at 5 mg/rat/day, and baclofen at 1.06 mg/rat/day. All the compounds are administered in solution in distilled water. The pumps implanted in the control animals release a 0.9% NaCl solution (saline)/rat/day; the doses refer to the weight of non-salified compound.
The effects obtained with compounds (Ia), (Ib), and the products chosen as references are represented in FIGS. 4 to 8 in the appendix. FIGS. 4 to 7 represent the analgesic effects of the various products evaluated at days 4, 6, 8, 11, and 13 of treatment and 1 day following explantation of the pump (day 15). FIG. 8 represents the analgesic effects of the various products measured at day 21, which is 6 days following the treatment's end.
The individual scores of each animal represent the average (±standard error) obtained after application of the von Frey hairs. The comparison of the results between the various groups as well as the progress of the values obtained over time are performed using an analysis of variance test (ANOVA), followed by a Dunnett's multiple comparison test.

[2] = test system: hypersensitivity (allodynia) after unilateral ligature of the infraorbital nerve (peripheral neuropathy); details: rat infraorbital nerve ligature model; cited from earlier work
[3] = test system: chronic hypersensitivity after spinal cord lesion (central neuropathy); experiment: central neuropathy test in the rat (spinal cord lesion, vocalization threshold to von Frey hairs); assay type: in vivo; details: fumarate of (Ia) 0.63 mg/rat/day
Procedure: The central neuropathy test used is conducted in the rat according to a method analogous to that described by Hao and Xu in Pain 1996, 66, 279-286. The product to be tested is delivered at a constant rate by means of an osmotic pump (Alzet, model 2ML2) for 14 days. The pumps are implanted 28 days after spinal cord lesion and then explanted at the treatment's end. In this model, it was established that at 28 days post-lesion the animal is in a phase of chronic hypersensitivity which then lasts for several months. In this experiment, the hypersensitivity of the lesioned animals treated with compound (Ia) or with saline solution was measured. The pain threshold was objectified by the animal's persistent vocalization in response to a stimulation of increasing intensity in the sensitive region by means of von Frey hairs. […] The fumarate of compound (Ia) is administered at 0.63 mg/rat/day. The pumps implanted in the group of lesioned control animals release a 0.9% NaCl solution (saline)/rat/day.
The stimulation sensitivity tests by means of von Frey hairs are conducted 3 days after implantation of the osmotic pump and continue regularly for 28 days. The doses refer to the weight of non-salified compound.
The effects obtained with compound (Ia) in comparison with those of the lesioned control animals that received saline solution are represented in FIG. 3 in the appendix.

Row | Structure (SMILES) | amplitude of decrease of perceived pain intensity compared with baclofen [1] | analgesic effect six days after the treatment's end (day 21) [1] | amplitude of analgesia 6 days after the treatment's end compared with amplitude at the treatment's end (day 15) [1] | reduction of hypersensitivity (allodynia) to stimulation during treatment, versus saline [1] | activity in the peripheral neuropathy model as established previously [2] | analgesia after treatment is interrupted (curative phase) ([3]; after day 15, 14 days following pump explantation) | symptomatic analgesia (vocalization threshold to von Frey stimulation) during treatment, versus saline ([3]; osmotic pump 14 days implanted 28 days after spinal cord lesion)
1 | CNc1nc(CNCC2(F)CCN(C(=O)c3ccc(F)c(Cl)c3)CC2)ccc1C [Compound (Ib)] | at least equivalent | continued to show a significant analgesic effect | not statistically different | significantly only after day 13 | – | – | –
2 | NCC(CC(=O)O)c1ccc(Cl)cc1 (stereo not drawn) [baclofen, reference compound] | – | disappeared completely | – | significant analgesic effect after day 11 | agent with the highest activity | – | –
3 | Cc1ccc(CNCC2(F)CCN(C(=O)c3ccc(F)c(Cl)c3)CC2)nc1 [Compound (Ia)] | at least equivalent | continued to show a significant analgesic effect | not statistically different | significantly after day 11 | – | analgesia persists and is maintained at the same level as that attained at the treatment's end | statistically significant as of the tenth day of treatment
4 | CN1CC[C@]23c4c5ccc(O)c4O[C@H]2[C@@H](O)C=C[C@H]3[C@H]1C5 [morphine, reference compound] | – | disappeared completely | – | inactive | – | – | –
